From patent US4705900A, “Insecticidal alkenes” (Imperial Chemical Industries PLC, priority 1985, dated 1987) come the findings set out here.

A value given as a limit tells only on which side of the number the result lay.

One experiment deals with Tetranychus urticae. Put plainly: mortality of red spider mites (TU), contact test. The experiment is classed as in vivo, Tetranychus urticae (red spider mites - adult). The conditions noted are these: Tetranychus urticae, 72 h, French bean leaf, 3 days, read-out: grading of mortality, TU. Here is the method:
(§1) The activity of the Product was determined using a variety of insect pests. The Product was used in the form of liquid preparations containing 500 or 100 parts per million (ppm) by weight of the Product. The preparations were made by dissolving the Product in acetone and diluting the solutions with water containing 0.01% by weight of a wetting agent sold under the trade name "LISSAPOL" NX until the liquid preparations contained the required concentration of the Product. "Lissapol" is a Registered Trade Mark.
(§2) The test procedure adopted with regard to each pest was basically the same and comprised supporting a number of the pests on a medium which was usually a host plant or a foodstuff on which the pests feed, and treating either or both the pests and the medium with the preparations. The mortality of the pests was then assessed at periods usually varying from one to three days after the treatment.
(§3) The results of the tests are given in Table IV for each of the Products, at the rate in parts per million given in the second column as a grading of mortality designated as A, B or C wherein A indicates 80-100% mortality or knockdown, B indicates 50-79% mortality or knockdown and C indicates less than 50% mortality or knockdown.
(§4) In Table IV the pest organism used is designated by a letter code and the pests species, the support medium or food, and the type and duration of test is given in Table III.
(red spider mites - adult)

The subject of another experiment is Myzus persicae. Kind of experiment: mortality of aphids (MP), contact test. It is filed as in vivo, Myzus persicae (aphids). Particulars: Myzus persicae, 48 h, leaf, 2 days, read-out: grading of mortality, MP. The procedure: as §1, §2, §3, §4
Another experiment relates to Nilaparvata lugens. Put plainly: mortality of green leaf hopper (NL), contact test. The experiment is classed as in vivo, Nilaparvata lugens (brown planthopper). Particulars: Nilaparvata lugens, in Brassica oleracea, 144 h, cabbage leaf, 6 days, read-out: grading of mortality, NL. Here is the method:
as §1, §2, §3, §4

The subject of experiment [1] is Musca domestica. Put plainly: knockdown of houseflies (MD/KD). It is filed as in vivo, Musca domestica (houseflies - adults). The conditions noted are these: Musca domestica, cotton wool/sugar, 4 hours, read-out: grading of knockdown, MD/KD. The procedure:
as §1, §2
In case of the species Musca domestica (housefly), additional tests to determine the knockdown effect of the compounds were performed.
as §3, §4

In experiment [2] the test system is Musca domestica. Kind of experiment: mortality of houseflies (MD), contact test. It is filed as in vivo, Musca domestica (houseflies - adults). The conditions noted are these: Musca domestica, 24 h, cotton wool/sugar, 1 day, read-out: grading of mortality, MD. The procedure:
as §1, §2, §3, §4

For the next experiment, the system named is Blattella germanica. Kind of experiment: mortality of cockroach nymphs (BG), residual test. The conditions noted are these: Blattella germanica, 72 h, plastic pot, 3 days, read-out: grading of mortality, BG. It is filed as in vivo, Blattella germanica (cockroach nymphs). Here is the method: as §1, §2, §3, §4
The next experiment has as its system Heliothis viriscens. Put plainly: whole plant or invertebrate. The experiment is classed as in vivo, Heliothis viriscens (tobacco budworm). Particulars: in Gossypium hirsutum, 72 h, read-out: grading of mortality, HV. Here is the method:
as §1, §2, §3, §4

The next experiment relates to Chilo partellurs. Put plainly: mortality of stem borers (CP), residual test. It is filed as in vivo, Chilo partellurs (Stem borers). The conditions noted are these: Chilo, 72 h, oil seed rape leaf, 3 days, read-out: grading of mortality, CP. Here is the method: as §1, §2, §3, §4
The next experiment concerns Diabrotica balteata. Kind of experiment: mortality of rootworm larvae (DB), residual test. It is filed as in vivo, Diabrotica balteata (rootworm larvae). Particulars: Diabrotica balteata, in Zea mays, 72 h, filter paper/maize seed, 3 days, read-out: grading of mortality, DB. Here is the method: as §1, §2, §3, §4

By mortality is commonly meant the share of the test organisms that died. With `CC(C)(C=Cc1ccc(F)cc1)COCc1cccc(Oc2ccccc2)c1` [Compound 11, 3,3-Dimethyl-1-(4-fluorophenyl)-4-(3-phenoxybenzyloxy)but-1-ene], the mortality at 500 ppm with Tetranychus urticae is less than 50%; in the experiment on Myzus persicae it was less than 50%; with Nilaparvata lugens it was 80 to 100%; with Musca domestica [2] it was 50 to 79%; with Blattella germanica, less than 50%; in the experiment with Heliothis viriscens it was 80 to 100%. Moreover, the mortality at 500 ppm with Chilo partellurs lay within 80 to 100%; in the experiment on Diabrotica balteata, 50 to 79%. The pest or weed control at 500 ppm in the experiment on Musca domestica [1] lay within 80 to 100%.

`CC(C)(/C=C/c1ccc(C(F)(F)F)cc1)COCc1cccc(Oc2ccccc2)c1` [Compound 12, 3,3-dimethyl-1-(4-trifluoromethylphenyl)-4-(3-phenoxybenzyloxy)but-1-ene]: the mortality at 500 ppm is less than 50% with Tetranychus urticae; 50 to 79% with Myzus persicae; 80 to 100% with Nilaparvata lugens; less than 50% in the experiment on Musca domestica [2]; 50 to 79% with Blattella germanica; less than 50% in the experiment with Heliothis viriscens. For the same compound, the results for the mortality at 500 ppm with Chilo partellurs and in the experiment with Diabrotica balteata were 80 to 100% and less than 50%, respectively. Also, the pest or weed control at 500 ppm in the experiment with Musca domestica [1] was less than 50%.

For `Cc1ccc(C=CC(C)(C)COCc2cccc(Oc3ccccc3)c2)cc1` [Compound 14, 3,3-Dimethyl-1-(4-methylphenyl)-4-(3-phenoxybenzyloxy)but-1-ene], the mortality at 500 ppm with Tetranychus urticae was less than 50%; in the experiment on Myzus persicae it was less than 50%; with Nilaparvata lugens, 50 to 79%; in the experiment with Musca domestica [2], less than 50%; with Blattella germanica, less than 50%; in the experiment on Heliothis viriscens, 80 to 100%. The mortality at 500 ppm lay in the range of 80 to 100% in the experiment with Chilo partellurs and 50 to 79% with Diabrotica balteata. For the same compound, in the experiment on Musca domestica [1], the pest or weed control at 500 ppm is less than 50%.

`CC(C)(C=Cc1cc(Cl)cc(Cl)c1)COCc1cccc(Oc2ccccc2)c1` [Compound 15, 3,3-Dimethyl-1-(3,5-dichlorophenyl)-4-(3-phenoxybenzyloxy)but-1-ene]: the mortality at 500 ppm in the experiment on Tetranychus urticae, in the experiment on Myzus persicae, in the experiment with Nilaparvata lugens, in the experiment with Musca domestica [2], in the experiment with Blattella germanica and in the experiment with Heliothis viriscens was less than 50% each time. In addition, the mortality at 500 ppm was 80 to 100% with Chilo partellurs and less than 50% with Diabrotica balteata. Besides, the pest or weed control at 500 ppm in the experiment with Musca domestica [1] is less than 50%.

In the case of `CC(C)(C=Cc1ccccc1F)COCc1cccc(Oc2ccccc2)c1` [Compound 16, 3,3-Dimethyl-1-(2-fluorophenyl)-4-(3-phenoxybenzyloxy)but-1-ene], the mortality at 500 ppm with Tetranychus urticae, in the experiment on Myzus persicae, in the experiment with Nilaparvata lugens, with Musca domestica [2], in the experiment on Blattella germanica and with Heliothis viriscens was less than 50% in each case. Moreover, the mortality at 500 ppm with Chilo partellurs and in the experiment with Diabrotica balteata was less than 50% in each case. The pest or weed control at 500 ppm in the experiment with Musca domestica [1] was less than 50%.

Consider `CC(C)(C=Cc1cccc(F)c1)COCc1cccc(Oc2ccccc2)c1` [Compound 17, 3,3-Dimethyl-1-(3-fluorophenyl)-4-(3-phenoxybenzyloxy)but-1-ene], for which the mortality at 500 ppm was less than 50% in the experiment with Tetranychus urticae; less than 50% in the experiment with Myzus persicae; less than 50% in the experiment with Nilaparvata lugens; less than 50% in the experiment on Musca domestica [2]; less than 50% in the experiment with Blattella germanica; 80 to 100% in the experiment with Heliothis viriscens. Moreover, the results for the mortality at 500 ppm in the experiment with Chilo partellurs and in the experiment on Diabrotica balteata were 80 to 100% and less than 50%, respectively. The pest or weed control at 500 ppm in the experiment with Musca domestica [1] was less than 50%.

Regarding `CC(C)(C=Cc1ccc(F)c(F)c1)COCc1cccc(Oc2ccccc2)c1` [Compound 18, 3,3-Dimethyl-1-(3,4-difluorophenyl)-4-(3-phenoxybenzyloxy)but-1-ene], the mortality at 500 ppm in the experiment with Tetranychus urticae was 50 to 79%; in the experiment on Myzus persicae it was less than 50%; with Nilaparvata lugens, less than 50%; with Musca domestica [2] it was less than 50%; in the experiment with Blattella germanica, less than 50%; with Heliothis viriscens, 80 to 100%. In addition, the values for the mortality at 500 ppm in the experiment on Chilo partellurs and in the experiment on Diabrotica balteata were 80 to 100% and less than 50%, respectively. For the same compound, the pest or weed control at 500 ppm in the experiment on Musca domestica [1] was less than 50%.

For `Fc1ccc(/C=C/C2(COCc3cccc(Oc4ccccc4)c3)CC2)cc1` [Compound 19, 1-[2-(4-fluorophenyl)ethen-1-yl]-1-(3-phenoxybenzyloxymethyl)cyclopropane], the mortality at 100 ppm in the experiment with Tetranychus urticae is less than 50%; with Myzus persicae, less than 50%; in the experiment with Nilaparvata lugens, less than 50%; with Musca domestica [2], less than 50%; in the experiment on Blattella germanica, less than 50%; in the experiment with Heliothis viriscens it was 80 to 100%. Also, the mortality at 100 ppm in the experiment with Chilo partellurs and in the experiment on Diabrotica balteata was less than 50% throughout. Moreover, in the experiment with Musca domestica [1], the pest or weed control at 100 ppm was less than 50%.

As for `Fc1ccc(/C=C\C2(COCc3cccc(Oc4ccccc4)c3)CC2)cc1` [Compound 20, 1-[2-(4-fluorophenyl)ethen-1-yl]-1-(3-phenoxybenzyloxymethyl)cyclopropane], the mortality at 500 ppm in the experiment with Tetranychus urticae is less than 50%; with Myzus persicae it was 50 to 79%; with Nilaparvata lugens it was less than 50%; with Musca domestica [2], less than 50%; in the experiment on Blattella germanica, less than 50%; in the experiment with Heliothis viriscens it was less than 50%. The mortality at 500 ppm in the experiment with Chilo partellurs was 80 to 100%; with Diabrotica balteata it was less than 50%. The pest or weed control at 500 ppm in the experiment on Musca domestica [1] was less than 50%.

With `CC(C)(/C=C\c1ccccc1)COCc1ccc(F)c(Oc2ccccc2)c1` [Compound 21, 3,3-Dimethyl-1-phenyl-4-(4-fluoro-3-phenoxybenzyloxy)but-1-ene], the mortality at 100 ppm in the experiment with Tetranychus urticae, with Myzus persicae, with Nilaparvata lugens, in the experiment with Musca domestica [2], in the experiment on Blattella germanica and with Heliothis viriscens was less than 50% each time. Also, the mortality at 100 ppm in the experiment on Chilo partellurs is 80 to 100%; in the experiment with Diabrotica balteata, less than 50%. The pest or weed control at 100 ppm in the experiment on Musca domestica [1] was less than 50%.

Turning to `Clc1ccc(/C=C/C2(COCc3cccc(Oc4ccccc4)c3)CC2)cc1` [Compound 22, 1-[2-(4-chlorophenyl)ethen-1-yl]-1-(3-phenoxybenzyloxymethyl)cyclopropane], the mortality at 500 ppm was less than 50% in the experiment on Tetranychus urticae; less than 50% in the experiment on Myzus persicae; 50 to 79% in the experiment on Nilaparvata lugens; less than 50% with Musca domestica [2]; less than 50% with Blattella germanica; less than 50% in the experiment with Heliothis viriscens. Besides, the mortality at 500 ppm in the experiment with Chilo partellurs was 80 to 100%; with Diabrotica balteata, less than 50%. Further, in the experiment on Musca domestica [1], the pest or weed control at 500 ppm was less than 50%.

In the case of `Clc1ccc(/C=C\C2(COCc3cccc(Oc4ccccc4)c3)CC2)cc1` [Compound 23, 1-[2-(4-chlorophenyl)ethen-1-yl]-1-(3-phenoxybenzyloxymethyl)cyclopropane], the mortality at 500 ppm in the experiment with Tetranychus urticae is less than 50%; in the experiment with Myzus persicae, less than 50%; in the experiment on Nilaparvata lugens, 80 to 100%; in the experiment with Musca domestica [2], less than 50%; in the experiment with Blattella germanica, less than 50%; in the experiment on Heliothis viriscens, less than 50%. In addition, the mortality at 500 ppm was 80 to 100% with Chilo partellurs and less than 50% with Diabrotica balteata. Moreover, in the experiment on Musca domestica [1], the pest or weed control at 500 ppm is less than 50%.
